# Reference: PubChem BioAssay AID2060906 (Molecular Pharmacology Branch, DTP, NCI, 2025)
# Tested on: 485176-168-R4-J1-PDC complex spheroid growth
# Test: Anticancer human tumor 485176-168-R4-J1-PDC patient-derived pancreatic adenocarcinoma cell line growth inhibition [RAS]
# Conditions: for IC50: curve of first compound; for viability, T/C: stronger effect = lower value
# Source text: RAS pathway inhibitors in Combinations in Complex Spheroids
# A high-throughput screen of multi-cell type tumor spheroids was designed to identify active combinations of RAS pathway inhibitors and targeted small molecules. Complex spheroids include a stromal component modeled by human endothelial cells (HUVEC) and fibroblasts modeled by human mesenchymal stem cells (MSCs). The concentration ranges selected for each drug and investigational agent were based upon clinically achievable concentrations if the clinical Cmax of the agent was known.
# Compounds. The drugs and investigational agents: abemaciclib (NSC768073), cobimetinib (NSC768068), divarasib (GDC6063, NSC841802), docetaxel (NSC628503), GDC-1971 (RLY-1971, NSC841576), gemcitabine (NSC613327), inavolisib (NSC800729), ipatasertib (NSC767898), KB-0742 (NSC834161), MRTX-1133 (NSC836407), osimertinib (NSC779217), RMC-4630 (NSC839698), RMC-6236 (NSC851965), RMC-6291 (NSC852671), Ro-3306 (NSC812927), sapanisertib (NSC764658), SN-38 (NSC673596), staurosporine (NSC755774), SY5609 (NSC837396), and tovorafenib (DAY101, NSC766906), were obtained from the National Cancer Institute (NCI) Developmental Therapeutics Program Chemical Repository. The FDA-approved anticancer drug set is available from the NCI Developmental Therapeutics Program. […] The stock solutions were prepared in dimethyl sulfoxide (DMSO, Sigma-Aldrich, St. Louis, MO, cat. D2650) at 800-fold the tested concentration and stored at -70 degrees C prior to their use. All drugs and investigational agents were tested over a range starting from a high concentration at or near the clinical Cmax and decreasing in half-log increments. If the clinical Cmax for an agent had not been determined, the highest concentration tested was 10 microM.
# Cell Culture. All cells were maintained in an incubator at 37 degrees C and 5% CO2 with 95% humidity. The PDC lines were cultured according to standard operating procedures established by the NCI PDMR. All PDCs were thawed and cultured in Matrigel-coated flasks prepared with a working solution of 1X Ham's F-12 nutrient mix, without supplementation (Invitrogen, Waltham, MA, cat. 11765054), 100 U/mL penicillin-streptomycin (Invitrogen, cat. 15140122), and 2.5% Matrigel (Corning Inc., Corning, NY, cat. 354248) for the first three passages. The 362531-283-R-J2-PDC and 782815-120-R-J1-PDC lines were cultured in 6C/Colon 1B media, which includes advanced DMEM/F-12 (Thermo Fisher Scientific, cat. 12634028), 10 mM HEPES (Thermo Fisher Scientific, cat. 15630080), 1X GlutaMAX supplement (Thermo Fisher Scientific, cat. 35050061), 0.1 mg/mL primocin (InvivoGen, San Diego, CA, cat. ant-pm-2), 10% defined fetal bovine serum, heat inactivated (HyClone Laboratories Inc., Logan, UT, cat. SH30070.03HI), 50% L-WRN conditioned media (ATCC, cat. CRL-3276), 1.25 mM N-Acetyl-L-cysteine (Sigma-Aldrich, cat. A9165), 10 mM nicotinamide (Sigma-Aldrich, cat. N0636), 1X B-27 supplement (Thermo Fisher Scientific, cat. 17504044), 1X N-2 supplement (Thermo Fisher Scientific, cat. 17502048), 50 ng/mL human EGF (Thermo Fisher Scientific, cat. PHG0311), and 10 microM Y-27632 dihydrochloride (Tocris Bioscience, cat. 1254). The K12877-001-R-J1-PDC line was cultured in 6I media, which includes all 6C/Colon 1B media plus 10 ng/mL human FGF-10 (PeproTech, cat. 100-26), 1 ng/mL human FGF-2 (PeproTech, cat. 100-18B), 1 µM prostaglandin E2 (Tocris Bioscience, cat. 2296), […] hydrocortisone (Sigma-Aldrich, cat. H4001), and […] bovine insulin (Sigma-Aldrich, cat. I6634). The K86415-001-R-J1-PDC line was cultured in 6D media, which includes all 6C/Colon 1B media components minus the L-WRN conditioned media. The 485176-168-R4-J1-PDC was cultured in PANC media, which includes all 6C/Colon 1B media plus 100 ng/mL human FGF-10 (PeproTech, cat. 100-26), 500 nM SB-431542 (Selleckchem, cat. S1067), and 10 nM gastrin (Tocris Bioscience, cat. 3006). […]
# 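Also: spheroids exposed to compounds for seven days before readout.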
# 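For viability, T/C in this document: luminescence viability expressed relative to DMSO vehicle wells set as 100%.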
compound,measurement,setting,value
CC1(O)CCCC1n1c(=O)c(C(F)F)cc2cnc(NC3CCN(S(C)(=O)=O)CC3)nc21 (configuration not stated) + C#Cc1c(F)ccc2cc(O)cc(-c3ncc4c(N5CC6CCC(C5)N6)nc(OCC56CCCN5CC(F)C6)nc4c3F)c12,IC50,second compound 0.0316 µM,2540 nM
same,IC50,second compound 0.1 µM,2970 nM
same,IC50,second compound 0.316 µM,3630 nM
same,IC50,second compound 1 µM,2080 nM
same,IC50,second compound 3.16 µM,2210 nM
same,IC50,second compound 10 µM,2900 nM
same,"viability, T/C","second compound 0.0316 µM, first compound 0.0316 µM",95%
same,"viability, T/C","second compound 0.0316 µM, first compound 0.1 µM",66.2%
same,"viability, T/C","second compound 0.0316 µM, first compound 0.316 µM",60.5%
same,"viability, T/C","second compound 0.0316 µM, first compound 1 µM",79.6%
same,"viability, T/C","second compound 0.0316 µM, first compound 3.16 µM",44.1%
same,"viability, T/C","second compound 0.0316 µM, first compound 10 µM",2.88%
same,"viability, T/C","second compound 0.1 µM, first compound 0.0316 µM",78.7%
same,"viability, T/C","second compound 0.1 µM, first compound 0.1 µM",76.5%
same,"viability, T/C","second compound 0.1 µM, first compound 0.316 µM",68.7%
same,"viability, T/C","second compound 0.1 µM, first compound 1 µM",61.2%
same,"viability, T/C","second compound 0.1 µM, first compound 3.16 µM",53.6%
same,"viability, T/C","second compound 0.1 µM, first compound 10 µM",2.44%
same,"viability, T/C","second compound 0.316 µM, first compound 0.0316 µM",89.9%
same,"viability, T/C","second compound 0.316 µM, first compound 0.1 µM",72.2%
same,"viability, T/C","second compound 0.316 µM, first compound 0.316 µM",68.3%
same,"viability, T/C","second compound 0.316 µM, first compound 1 µM",66.9%
same,"viability, T/C","second compound 0.316 µM, first compound 3.16 µM",60.4%
same,"viability, T/C","second compound 0.316 µM, first compound 10 µM",3.62%
same,"viability, T/C","second compound 1 µM, first compound 0.0316 µM",91.5%
same,"viability, T/C","second compound 1 µM, first compound 0.1 µM",81.4%
same,"viability, T/C","second compound 1 µM, first compound 0.316 µM",66.8%
same,"viability, T/C","second compound 1 µM, first compound 1 µM",64.7%
same,"viability, T/C","second compound 1 µM, first compound 3.16 µM",47.2%
same,"viability, T/C","second compound 1 µM, first compound 10 µM",1.8%
same,"viability, T/C","second compound 3.16 µM, first compound 0.0316 µM",104%
same,"viability, T/C","second compound 3.16 µM, first compound 0.1 µM",84.9%
same,"viability, T/C","second compound 3.16 µM, first compound 0.316 µM",66.2%
same,"viability, T/C","second compound 3.16 µM, first compound 1 µM",62.2%
same,"viability, T/C","second compound 3.16 µM, first compound 3.16 µM",58%
same,"viability, T/C","second compound 3.16 µM, first compound 10 µM",2.91%
same,"viability, T/C","second compound 10 µM, first compound 0.0316 µM",89.1%
same,"viability, T/C","second compound 10 µM, first compound 0.1 µM",70.8%
same,"viability, T/C","second compound 10 µM, first compound 0.316 µM",82.7%
same,"viability, T/C","second compound 10 µM, first compound 1 µM",57.1%
same,"viability, T/C","second compound 10 µM, first compound 3.16 µM",55.9%
same,"viability, T/C","second compound 10 µM, first compound 10 µM",2.88%
